Test results from patent US20230159538A1, “PYRROLIDINE-PYRAZOLES AS PYRUVATE KINASE ACTIVATORS” (Global Blood Therapeutics, Inc., priority 2020, published 2023).

Target: T1, Human pyruvate kinase R (PKR) (Homo sapiens, UniProt P30613)
T1 construct: Human pyruvate kinase R (PKR), residues 14-574; 6x-His (N, cleaved yes); 8x-Arg (N, cleaved yes); SUMO (N, cleaved yes); host or cells: E. coli
Experiment: Biochemical assay for activation of pyruvate kinase R (Kinase-Glo luminescence, ATP generation)
Details: for AC50: 0.1 nM PKR, 2 mM FBP, 0.3 mM ADP, 0.1 mM PEP; for PKR % activation: maximal activation level relative to the activation level achieved by AG-348 @ 10 μM
Procedure: Proteins were translated as fusions with 6×-His, 8×-Arg, and SUMO at the N-terminus. […] All proteins were cloned, expressed in E. coli, and purified using similar protocols. Cells were grown at 30° C. in Luria-Bertani broth supplemented with 0.4% glucose to OD600=0.8 and induced with 0.4 mM IPTG at 16° C. for 18 hours. Cells were harvested by centrifugation, resuspended in 50 mM potassium phosphate pH 8.0, 500 mM NaCl, 25 mM imidazole pH 8.0, and 3 mM β-mercaptoethanol. Cells were lysed using a LM20 microfluidizer from Microfluidics (Westwood, Mass.). The crude lysate was immediately supplemented with 0.2 mM phenylmethylsulfonyl fluoride (PMSF) and centrifuged at 20,000 g for 20 minutes. The soluble fraction was subsequently incubated with 2 mL Ni-NTA (GE Healthcare) per 1,000 ODs for 1 hour at 4° C. Following incubation with the Ni-NTA resin, lysate was removed by pelleting resin at 2,500 g for 3 minutes and washed 3 times with 9 bed volumes of 50 mM potassium phosphate pH 8.0, 500 mM NaCl, 25 mM imidazole, and 3 mM β-mercaptoethanol. Following the batch wash Ni-NTA resin was loaded onto a gravity column and His-tagged protein was eluted with 6 bed volumes of 10 mM Tris/HCl pH 8.0, 200 mM NaCl, 500 mM imidazole, and 3 mM β-mercaptoethanol. Eluted protein was dialyzed overnight against 10 mM Tris/HCl pH 8.0, 200 mM NaCl, and 1 mM DTT and the 6×-His-8×-Arg-SUMO-tag was cleaved using a 20:1 molar ratio of protein:3C protease. The protein was purified by anion exchange chromatography on a HiTrapQ or MonoQ 10/100 GL column (GE Healthcare) via a linear NaCl gradient and twice by size exclusion chromatography using a Superdex S200 26/60 column (GE Healthcare) run in 10 mM Tris/HCl pH 8.0, 200 mM NaCl, 10 mM MgCl2, 1 mM DTT. Proteins were concentrated to ˜12 mg/mL for crystallization and flash frozen for storage.
Biochemical Assay for Activation of Pyruvate Kinase R
Activation of pyruvate kinase R (PKR) and pyruvate kinase M2 (PKM2) were measured using a luminescence based measurement of ATP generation and the Kinase-Glo luminescent kinase reagent kit.

T1 sequence (P30613 14-574): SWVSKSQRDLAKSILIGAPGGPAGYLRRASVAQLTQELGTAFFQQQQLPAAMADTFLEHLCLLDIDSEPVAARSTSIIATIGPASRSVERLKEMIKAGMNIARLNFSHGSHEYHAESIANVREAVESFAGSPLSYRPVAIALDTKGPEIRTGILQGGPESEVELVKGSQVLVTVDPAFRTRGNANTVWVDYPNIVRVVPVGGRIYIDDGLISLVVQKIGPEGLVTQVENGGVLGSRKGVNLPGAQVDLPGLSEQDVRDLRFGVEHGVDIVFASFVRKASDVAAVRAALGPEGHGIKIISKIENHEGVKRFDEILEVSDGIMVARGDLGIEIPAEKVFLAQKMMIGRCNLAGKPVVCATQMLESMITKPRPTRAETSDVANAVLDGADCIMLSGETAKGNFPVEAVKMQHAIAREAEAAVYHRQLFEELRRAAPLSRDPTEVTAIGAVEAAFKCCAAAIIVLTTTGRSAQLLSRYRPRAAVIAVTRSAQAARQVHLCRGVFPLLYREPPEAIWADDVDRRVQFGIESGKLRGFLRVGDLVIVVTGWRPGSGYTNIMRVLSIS

| Structure (SMILES) | AC50 | PKR % activation |
| --- | --- | --- |
| O=C(C(CO)c1ccncc1)N1Cc2cn(S(=O)(=O)c3ccc4ncsc4c3)nc2C1 (racemic) [Compound 27, 1-[2-(1,3-benzothiazole-6-sulfonyl)-2H,4H,5H,6H-pyrrolo[3,4-c]pyrazol-5-yl]-3-hydroxy-2-(pyridin-4-yl)propan-1-one] | 39 nM | – |
| COC(C(=O)N1Cc2cn(S(=O)(=O)c3ccc(OC(F)F)cc3)nc2C1)c1ccccc1F (racemic) [Compound 98, 1-{2-[4-(difluoromethoxy)benzenesulfonyl]-2H,4H,5H,6H-pyrrolo[3,4-c]pyrazol-5-yl}-2-(2-fluorophenyl)-2-methoxyethan-1-one] | 210 nM | – |
| O=C([C@H](CO)c1ccccc1)N1Cc2cn(S(=O)(=O)c3ccc4ncsc4c3)nc2C1 (single isomer, unassigned) [Compound 2, (2S)-1-[2-(1,3-benzothiazole-6-sulfonyl)-2H,4H,5H,6H-pyrrolo[3,4-c]pyrazol-5-yl]-3-hydroxy-2-phenylpropan-1-one or (2R)-1-[2-(1,3-benzothiazole-6-sulfonyl)-2H,4H,5H,6H-pyrrolo[3,4-c]pyrazol-5-yl]-3-hydroxy-2-phenylpropan-1-one] | 556 nM | 127% |
| O=C([C@@H](CO)c1ccccc1)N1Cc2cn(S(=O)(=O)c3ccc(OC(F)F)cc3)nc2C1 (single isomer, unassigned) [Compound 8, (2R)-1-{2-[4-(difluoromethoxy)benzenesulfonyl]-2H,4H,5H,6H-pyrrolo[3,4-c]pyrazol-5-yl}-3-hydroxy-2-phenylpropan-1-one, or (2S)-1-{2-[4-(difluoromethoxy)benzenesulfonyl]-2H,4H,5H,6H-pyrrolo[3,4-c]pyrazol-5-yl}-3-hydroxy-2-phenylpropan-1-one] | 1980 nM | 152% |
| O=C(N1Cc2cn(S(=O)(=O)c3ccc4ncsc4c3)nc2C1)[C@]1(c2ccccn2)CCOC1 (single isomer, unassigned) [Compound 19, 6-({5-[(3S)-3-(pyridin-2-yl)oxolane-3-carbonyl]-2H,4H,5H,6H-pyrrolo[3,4-c]pyrazol-2-yl}sulfonyl)-1,3-benzothiazole or 6-({5-[(3R)-3-(pyridin-2-yl)oxolane-3-carbonyl]-2H,4H,5H,6H-pyrrolo[3,4-c]pyrazol-2-yl}sulfonyl)-1,3-benzothiazole] | 699 nM | 59% |
| Cc1ccc(C2(C(=O)N3Cc4cn(S(=O)(=O)c5ccc6ncsc6c5)nc4C3)CCOC2)cn1 (single isomer, unassigned) [Compound 31, 6-({5-[(3S)-3-(6-methylpyridin-3-yl)oxolane-3-carbonyl]-2H,4H,5H,6H-pyrrolo[3,4-c]pyrazol-2-yl}sulfonyl)-1,3-benzothiazole or 6-({5-[(3R)-3-(6-methylpyridin-3-yl)oxolane-3-carbonyl]-2H,4H,5H,6H-pyrrolo[3,4-c]pyrazol-2-yl}sulfonyl)-1,3-benzothiazole] | 173 nM | – |
| Cc1cccc([C@@]2(C(=O)N3Cc4cn(S(=O)(=O)c5ccc6ncsc6c5)nc4C3)CCOC2)n1 (single isomer, unassigned) [Compound 36, 6-({5-[(3S)-3-(6-methylpyridin-2-yl)oxolane-3-carbonyl]-2H,4H,5H,6H-pyrrolo[3,4-c]pyrazol-2-yl}sulfonyl)-1,3-benzothiazole or 6-({5-[(3R)-3-(6-methylpyridin-2-yl)oxolane-3-carbonyl]-2H,4H,5H,6H-pyrrolo[3,4-c]pyrazol-2-yl}sulfonyl)-1,3-benzothiazole] | 591 nM | 38% |
| CC(CO)(C(=O)N1Cc2cn(S(=O)(=O)c3ccc4ncsc4c3)nc2C1)c1ccccn1 (single isomer, unassigned) [Compound 43, (2R)-1-[2-(1,3-benzothiazole-6-sulfonyl)-2H,4H,5H,6H-pyrrolo[3,4-c]pyrazol-5-yl]-3-hydroxy-2-methyl-2-(pyridin-2-yl)propan-1-one or (2S)-1-[2-(1,3-benzothiazole-6-sulfonyl)-2H,4H,5H,6H-pyrrolo[3,4-c]pyrazol-5-yl]-3-hydroxy-2-methyl-2-(pyridin-2-yl)propan-1-one] | 75 nM | – |
| C[C@@](CO)(C(=O)N1Cc2cn(S(=O)(=O)c3ccc4ncsc4c3)nc2C1)c1ccccn1 (single isomer, unassigned) [Compound 44, (2R)-1-[2-(1,3-benzothiazole-6-sulfonyl)-2H,4H,5H,6H-pyrrolo[3,4-c]pyrazol-5-yl]-3-hydroxy-2-methyl-2-(pyridin-2-yl)propan-1-one or (2S)-1-[2-(1,3-benzothiazole-6-sulfonyl)-2H,4H,5H,6H-pyrrolo[3,4-c]pyrazol-5-yl]-3-hydroxy-2-methyl-2-(pyridin-2-yl)propan-1-one] | 550 nM | 86% |
| O=C(N1Cc2cn(S(=O)(=O)c3ccc4c(c3)NCCO4)nc2C1)[C@]1(c2ccccn2)CCOC1 (single isomer, unassigned) [Compound 45, 6-({5-[(3S)-3-(pyridin-2-yl)oxolane-3-carbonyl]-2H,4H,5H,6H-pyrrolo[3,4-c]pyrazol-2-yl}sulfonyl)-3,4-dihydro-2H-1,4-benzoxazine or 6-({5-[(3R)-3-(pyridin-2-yl)oxolane-3-carbonyl]-2H,4H,5H,6H-pyrrolo[3,4-c]pyrazol-2-yl}sulfonyl)-3,4-dihydro-2H-1,4-benzoxazine] | 15 nM | 94% |
| O=C(N1Cc2cn(S(=O)(=O)c3ccc4c(c3)NCCO4)nc2C1)[C@]1(c2ccccn2)CCOC1 (single isomer, unassigned) [Compound 46, 6-({5-[(3S)-3-(pyridin-2-yl)oxolane-3-carbonyl]-2H,4H,5H,6H-pyrrolo[3,4-c]pyrazol-2-yl}sulfonyl)-3,4-dihydro-2H-1,4-benzoxazine or 6-({5-[(3R)-3-(pyridin-2-yl)oxolane-3-carbonyl]-2H,4H,5H,6H-pyrrolo[3,4-c]pyrazol-2-yl}sulfonyl)-3,4-dihydro-2H-1,4-benzoxazine] | 129 nM | 45% |
| Cc1ncccc1[C@@H](N)C(=O)N1Cc2cn(S(=O)(=O)c3ccc4ncsc4c3)nc2C1 (single isomer, unassigned) [Compound 47, (2R)-2-amino-1-[2-(1,3-benzothiazole-6-sulfonyl)-2H,4H,5H,6H-pyrrolo[3,4-c]pyrazol-5-yl]-2-(2-methylpyridin-3-yl)ethan-1-one or (2S)-2-amino-1-[2-(1,3-benzothiazole-6-sulfonyl)-2H,4H,5H,6H-pyrrolo[3,4-c]pyrazol-5-yl]-2-(2-methylpyridin-3-yl)ethan-1-one] | 64 nM | 40% |
| C[C@@](CO)(C(=O)N1Cc2cn(S(=O)(=O)c3ccc4c(c3)OCCO4)nc2C1)c1ccccn1 (single isomer, unassigned) [Compound 48, (2R)-1-[2-(2,3-dihydro-1,4-benzodioxine-6-sulfonyl)-2H,4H,5H,6H-pyrrolo[3,4-c]pyrazol-5-yl]-3-hydroxy-2-methyl-2-(pyridin-2-yl)propan-1-one or (2S)-1-[2-(2,3-dihydro-1,4-benzodioxine-6-sulfonyl)-2H,4H,5H,6H-pyrrolo[3,4-c]pyrazol-5-yl]-3-hydroxy-2-methyl-2-(pyridin-2-yl)propan-1-one] | 223 nM | 46% |
| O=C(N1Cc2cn(S(=O)(=O)c3ccc4ncsc4c3)nc2C1)C1(c2ccccc2)CCCN1 (single isomer, unassigned) [Compound 54, 6-({5-[(2S)-2-phenylpyrrolidine-2-carbonyl]-2H,4H,5H,6H-pyrrolo[3,4-c]pyrazol-2-yl}sulfonyl)-1,3-benzothiazole or 6-({2-[(2R)-2-phenylpyrrolidine-2-carbonyl]-2H,4H,5H,6H-pyrrolo[3,4-c]pyrazol-2-yl}sulfonyl)-1,3-benzothiazole] | 4000 nM | – |
| Cc1ncccc1[C@@H](N)C(=O)N1Cc2cn(S(=O)(=O)c3ccc4ncsc4c3)nc2C1 (single isomer, unassigned) [Compound 55, (2R)-2-amino-1-[2-(1,3-benzothiazole-6-sulfonyl)-2H,4H,5H,6H-pyrrolo[3,4-c]pyrazol-5-yl]-2-(2-methylpyridin-3-yl)ethan-1-one or (2S)-2-amino-1-[2-(1,3-benzothiazole-6-sulfonyl)-2H,4H,5H,6H-pyrrolo[3,4-c]pyrazol-5-yl]-2-(2-methylpyridin-3-yl)ethan-1-one] | > 10000 nM | 0% |
